Laboratory results from patent US20110105389A1 (priority 2009, published 2011).
Like-named read-outs stand apart in the source and are kept apart here. Each block holds one molecule with its values, some of them ahead of it.

Columns and labels:
[1] = biological target: T1, ghrelin receptor (HEK-GHSR1 stable cells) (Homo sapiens, UniProt Q92847); assay: Ghrelin receptor inverse agonist assay (HTRF IP-one), Method B4; assay type: cell-based
T1 construct: expressed in transfected cells
How it was run: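 HEK cells stably expressing GHSR1, seeded at 100 000 cells/well overnight, exposed to compound for 30 min at 37° C. Cells then lysed and IP1 accumulation measured by HTRF (d2 plus anti-IP1 cryptate, 1 h at room temp). Wells lacking d2 served as negative control.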

[2] = biological target: T2, human ghrelin receptor (GRLN, growth hormone secretagogue receptor, hGHS-R1a) (Homo sapiens, UniProt Q92847); assay: Competitive radioligand binding assay (ghrelin receptor), Method B1
T2 construct: purchased PerkinElmer BioSignal #RBHGHSM, lot#1887; host or cells: HEK-293 cells, stably transfected (membranes)
How it was run: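 Filtration competition format: bound radioactivity counted after GF/C harvesting and cold 50 mM Tris-HCl washes. Incubation lasted 30 min at room temperature in Hepes pH 7.4 buffer with Ca2+, Mg2+, EDTA and 0.4% BSA (DMSO ≤0.1% final); values from variable-slope non-linear regression.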

[3] = Metabolic stability in human liver microsomes, Method B8; assay type: in vitro ADME; conditions: human liver microsomes 0.8 mg/mL, 5 μM compound, 37° C.
How it was run: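 Pooled human liver microsomes (15 mixed-sex donors) at 0.8 mg/mL in 100 mM potassium phosphate, pH 7.4, with 1.5 mM NADPH and 8 mM MgCl2. Compounds tested in duplicate at a single 5 μM (0.05% DMSO), incubated at 37° C.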

[4] = inverse agonist at the ghrelin receptor, Method B4
[5] = Ghrelin receptor binding activity, Method B1

T2 sequence (Q92847 whole entry): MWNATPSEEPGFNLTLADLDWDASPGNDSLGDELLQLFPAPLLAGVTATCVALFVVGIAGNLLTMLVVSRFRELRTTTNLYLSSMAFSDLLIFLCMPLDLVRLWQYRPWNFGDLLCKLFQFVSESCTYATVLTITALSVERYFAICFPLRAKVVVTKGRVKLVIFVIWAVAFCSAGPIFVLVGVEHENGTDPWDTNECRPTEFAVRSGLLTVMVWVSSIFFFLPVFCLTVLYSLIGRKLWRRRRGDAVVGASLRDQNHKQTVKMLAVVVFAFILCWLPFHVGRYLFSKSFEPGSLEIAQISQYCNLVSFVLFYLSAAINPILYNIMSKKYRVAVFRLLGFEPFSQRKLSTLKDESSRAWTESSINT
T1 sequence (Q92847 whole entry): as above

SMILES: Cc1cccc(C[C@H]2NC(=O)[C@H](C(C)O)N(C)C(=O)[C@H](C(C)C)NCCOc3ccccc3C[C@H](O)CNC2=O)c1 (stereo partly drawn) [Compound 1453]
IC50 [1]: 10 to 50 nM | IC50 [2]: 1 to 10 nM

SMILES: CC[C@@H]1CCc2ccc(F)cc2OCCN[C@@H](C(C)C)C(=O)N(C)[C@@H](C(C)O)C(=O)N[C@H](Cc2c[nH]c3ccccc23)C(=O)N1 (stereo partly drawn) [Compound 1505]
IC50 [1]: 100 to 500 nM | HLM, metabolic stability in human liver microsomes [3]: 51.5 μL/min/mg protein | IC50 [2]: 1 to 10 nM

SMILES: CC(C)[C@@H]1NCCOc2ccccc2C#C[C@@H](C)NC(=O)[C@@H](Cc2ccccc2)NC(=O)[C@H](C(C)O)N(C)C1=O (stereo partly drawn) [Compound 1688]
IC50 [1]: 50 to 100 nM | HLM, metabolic stability in human liver microsomes [3]: 41.4 μL/min/mg protein | IC50 [2]: 1 to 10 nM

SMILES: CC(C)C1NCCOc2cc(F)ccc2C#CCNC(=O)C(Cc2c[nH]c3ccccc23)NC(=O)C(C(C)O)N(C)C1=O (stereo not drawn) [Compound 1693]
IC50 [1, 4]: 100 to 500 nM | HLM, metabolic stability in human liver microsomes [3]: 83.8 μL/min/mg protein | IC50 [2, 5]: 10 to 100 nM

SMILES: CC(C)[C@@H]1NCCOc2ccccc2C#CCNC(=O)[C@@H](Cc2ccccc2)NC(=O)[C@H](C(C)O)N(C)C1=O (stereo partly drawn) [Compound 1712]
IC50 [1]: 50 to 100 nM | HLM, metabolic stability in human liver microsomes [3]: 58.2 μL/min/mg protein | IC50 [2]: 1 to 10 nM

SMILES: CC[C@@H]1C#Cc2ccccc2O[C@H](C)CN[C@@H](C2(C)CC2)C(=O)N(C)[C@@H](C(C)O)C(=O)N[C@H](Cc2c[nH]c3ccccc23)C(=O)N1 (stereo partly drawn) [Compound 1718]
IC50 [1, 4]: 50 to 100 nM | HLM, metabolic stability in human liver microsomes [3]: 43.6 μL/min/mg protein | IC50 [2, 5]: 1 to 10 nM

SMILES: CC(O)[C@H]1C(=O)N[C@H](Cc2c[nH]c3ccccc23)C(=O)N[C@H](C)C#Cc2ccc(F)cc2O[C@H](C)CN[C@@H](C2(C)CC2)C(=O)N1C (stereo partly drawn) [Compound 1720]
IC50 [1, 4]: 100 to 500 nM | HLM, metabolic stability in human liver microsomes [3]: 23.2 μL/min/mg protein | IC50 [2, 5]: 10 to 100 nM

SMILES: CC[C@@H]1C#Cc2ccccc2OCCN[C@@H](C(C)C)C(=O)N(C)[C@@H](C(C)O)C(=O)N[C@H](Cc2c[nH]c3ccccc23)C(=O)N1 (stereo partly drawn) [Compound 1754]
IC50 [1, 4]: 50 to 100 nM | HLM, metabolic stability in human liver microsomes [3]: 43.7 μL/min/mg protein | IC50 [2, 5]: 1 to 10 nM

SMILES: CC[C@@H]1NCC2CCc3cccc(c3O2)CCCNC(=O)[C@@H](Cc2ccccc2)NC(=O)[C@H](C(C)O)N(C)C1=O (stereo partly drawn) [Compound 1780]
IC50 [1]: 50 to 100 nM | HLM, metabolic stability in human liver microsomes [3]: 25.3 μL/min/mg protein | IC50 [2]: 10 to 100 nM

SMILES: CC(O)[C@H]1C(=O)N[C@H](Cc2ccccc2)C(=O)NCC#Cc2ccccc2OCCN[C@@H](C2(C)CC2)C(=O)N1C (stereo partly drawn) [Compound 1878]
IC50 [1]: 10 to 50 nM | HLM, metabolic stability in human liver microsomes [3]: 34.7 μL/min/mg protein | IC50 [2]: 1 to 10 nM

SMILES: CC(C)[C@@H]1NCCOc2ccccc2C2CCC(C2)NC(=O)[C@@H](Cc2ccc(F)cc2)NC(=O)[C@H](C(C)O)N(C)C1=O (stereo partly drawn) [Compound 1903]
HLM, metabolic stability in human liver microsomes [3]: 47.9 μL/min/mg protein

Other lines, results leading:

IC50 [1]: 10 to 50 nM | HLM, metabolic stability in human liver microsomes [3]: 20.9 μL/min/mg protein | IC50 [2]: 1 to 10 nM
SMILES: CC(C)[C@@H]1NCCOc2ccccc2C[C@H](O)[C@@H](C)NC(=O)[C@@H](Cc2cccc(F)c2)NC(=O)[C@H](C(C)O)N(C)C1=O (stereo partly drawn) [Compound 1503]

IC50 [1, 4]: 100 to 500 nM | HLM, metabolic stability in human liver microsomes [3]: 121 μL/min/mg protein | IC50 [2, 5]: 1 to 10 nM
SMILES: CC(C)C1NCCOc2ccccc2C#CCNC(=O)C(Cc2c[nH]c3ccccc23)NC(=O)C(C(C)O)N(C)C1=O (stereo not drawn) [Compound 1692]

IC50 [1, 4]: 50 to 100 nM | HLM, metabolic stability in human liver microsomes [3]: 44.8 μL/min/mg protein | IC50 [2, 5]: 1 to 10 nM
SMILES: CCC1CCc2ccc(F)cc2OCCNC(C2(C)CC2)C(=O)N(C)C(C(C)O)C(=O)NC(Cc2c[nH]c3ccccc23)C(=O)N1 (stereo not drawn) [Compound 1703]

IC50 [1, 4]: 100 to 500 nM | HLM, metabolic stability in human liver microsomes [3]: 27.3 μL/min/mg protein | IC50 [2, 5]: 10 to 100 nM
SMILES: CC[C@@H]1C#Cc2ccc(F)cc2O[C@H](C)CN[C@@H](C2(C)CC2)C(=O)N(C)[C@@H](C(C)O)C(=O)N[C@H](Cc2c[nH]c3ccccc23)C(=O)N1 (stereo partly drawn) [Compound 1707]

IC50 [1, 4]: 50 to 100 nM | HLM, metabolic stability in human liver microsomes [3]: 48.8 μL/min/mg protein | IC50 [2, 5]: 1 to 10 nM
SMILES: CC(O)[C@H]1C(=O)N[C@H](Cc2c[nH]c3ccccc23)C(=O)N[C@H](C)C#Cc2ccccc2OCCN[C@@H](C2(C)CC2)C(=O)N1C (stereo partly drawn) [Compound 1713]

IC50 [1, 4]: 100 to 500 nM | HLM, metabolic stability in human liver microsomes [3]: 23.4 μL/min/mg protein | IC50 [2, 5]: 10 to 100 nM
SMILES: CC(O)[C@H]1C(=O)N[C@H](Cc2c[nH]c3ccccc23)C(=O)N[C@H](C)CCc2ccc(F)cc2O[C@H](C)CN[C@@H](C2(C)CC2)C(=O)N1C (stereo partly drawn) [Compound 1719]

IC50 [1, 4]: 50 to 100 nM | HLM, metabolic stability in human liver microsomes [3]: 41.5 μL/min/mg protein | IC50 [2, 5]: 10 to 100 nM
SMILES: CC[C@@H]1C#Cc2c(F)cccc2OCCN[C@@H](C(C)C)C(=O)N(C)[C@@H](C(C)O)C(=O)N[C@H](Cc2c[nH]c3ccccc23)C(=O)N1 (stereo partly drawn) [Compound 1726]

IC50 [1, 4]: 50 to 100 nM | HLM, metabolic stability in human liver microsomes [3]: 38.6 μL/min/mg protein | IC50 [2, 5]: 1 to 10 nM
SMILES: CC[C@@H]1CCc2ccc(F)cc2OCCN[C@@H](C2(C)CC2)C(=O)N(C)[C@@H](C(C)O)C(=O)N[C@H](Cc2ccccc2)C(=O)N1 (stereo partly drawn) [Compound 1746]

IC50 [1, 4]: 100 to 500 nM | HLM, metabolic stability in human liver microsomes [3]: 109.6 μL/min/mg protein | IC50 [2, 5]: 1 to 10 nM
SMILES: CC[C@@H]1CCc2ccc(F)cc2OCCN[C@@H](C(C)C)C(=O)N(C)[C@@H](C(C)O)C(=O)N[C@H](Cc2ccc(O)cc2)C(=O)N1 (stereo partly drawn) [Compound 1751]

IC50 [1, 4]: 50 to 100 nM | HLM, metabolic stability in human liver microsomes [3]: 47.8 μL/min/mg protein | IC50 [2, 5]: 1 to 10 nM
SMILES: CC[C@@H]1C#Cc2ccc(F)cc2OCCN[C@@H](C(C)C)C(=O)N(C)[C@@H](C(C)O)C(=O)N[C@H](Cc2c[nH]c3ccccc23)C(=O)N1 (stereo partly drawn) [Compound 1755]

IC50 [1, 4]: 50 to 100 nM | HLM, metabolic stability in human liver microsomes [3]: 39.6 μL/min/mg protein | IC50 [2, 5]: 1 to 10 nM
SMILES: CC(C)[C@@H]1NCC2CCc3cccc(c3O2)CCCNC(=O)[C@@H](Cc2ccccc2)NC(=O)[C@H](C(C)O)N(C)C1=O (stereo partly drawn) [Compound 1777]

IC50 [1]: 100 to 500 nM | HLM, metabolic stability in human liver microsomes [3]: 58.1 μL/min/mg protein | IC50 [2]: 10 to 100 nM
SMILES: CC(O)[C@H]1C(=O)N[C@H](Cc2ccccc2)C(=O)NCCCc2cccc3c2OC(CC3)CN[C@@H](C2CC2)C(=O)N1C (stereo partly drawn) [Compound 1778]

IC50 [1, 4]: 10 to 50 nM | HLM, metabolic stability in human liver microsomes [3]: 33.7 μL/min/mg protein | IC50 [2, 5]: 10 to 100 nM
SMILES: CC(C)[C@@H]1NCCOc2ccccc2C2CCC(C2)NC(=O)[C@@H](Cc2c[nH]c3ccccc23)NC(=O)[C@H](C(C)O)N(C)C1=O (stereo partly drawn) [Compound 1843]

HLM, metabolic stability in human liver microsomes [3]: 60.7 μL/min/mg protein
SMILES: CC(C)[C@@H]1NCCOc2ccccc2C2CCC(C2)NC(=O)[C@@H](Cc2ccccc2)NC(=O)[C@H](C(C)O)N(C)C1=O (stereo partly drawn) [Compound 1848]

IC50 [1]: 50 to 100 nM | HLM, metabolic stability in human liver microsomes [3]: 30.9 μL/min/mg protein | IC50 [2]: 1 to 10 nM
SMILES: CC(O)[C@H]1C(=O)N[C@H](Cc2ccccc2)C(=O)NCC#Cc2c(F)cccc2OCCN[C@@H](C2(C)CC2)C(=O)N1C (stereo partly drawn) [Compound 1876]

IC50 [1]: 50 to 100 nM | HLM, metabolic stability in human liver microsomes [3]: 14.3 μL/min/mg protein | IC50 [2]: 1 to 10 nM
SMILES: CC(O)[C@H]1C(=O)N[C@H](Cc2ccccc2)C(=O)NCC#Cc2ccc(F)cc2OCCN[C@@H](C2(C)CC2)C(=O)N1C (stereo partly drawn) [Compound 1918]

IC50 [1]: 50 to 100 nM | IC50 [2]: 1 to 10 nM
SMILES: CC(C)[C@@H]1NCCOc2cccc(F)c2C#CCNC(=O)[C@@H](Cc2ccccc2)NC(=O)[C@H](C(C)O)N(C)C1=O (stereo partly drawn) [Compound 1929]
